Laboratory results from US11612595B2, “Compositions and methods for treating rheumatoid arthritis” (Generos Biopharma Ltd., priority 2017, dated 2023).

Experiments:
[1] = tested on: collagen-induced arthritis (CIA) model mice; assay: collagen-induced arthritis (CIA) model mice, clinical scores; type: in vivo, DBA/1J mice; set-up: key to Pairwise analysis of the difference between groups (clinical scores), vs Model / Pairwise analysis of the difference between groups (clinical scores), S5i 5 mpk vs S5i 10 mpk: p values from pairwise comparisons; settings: for clinical scores compared to Model: 5 mg/kg i.p. daily; for Pairwise analysis of the difference between groups (clinical scores), vs Model: 5 mpk
Text: FIGS. 8A and 8B show graphs depicting clinical score changes in four groups of CIA mouse models under different treatment schemes. In FIG. 8A, different chemicals (DMSO as control for Model group, blank group is left untreated) were daily administered intraperitoneally at the indicated doses from the first injection of the collagen agent. In FIG. 8B, different chemicals were daily administered intraperitoneally from the second injection of collagen agent at the indicated doses. Clinical scores were given double-blindly according to the scoring scheme every 2 days.
FIGS. 9A and 9B show graphs of clinical scores at day 44 for each group, the overall difference analyzed by ANOVA is significant p<0.0001, while the p value between Model and each individual group is labeled above the bar * p<0.05, ** p<0.01.
(§1) Eight of nine groups (10 mice in each group) of male DBA/1J mice (age 9-10 weeks. H-2q haplotype) were subject to CIA model induction and then to different treatment schemes. The group of mice without CIA model induction was used as a control (Blank). Specifically, Bovine type II collagen (Chondrex) was mixed with Freund's complete adjuvant (CFA) (Sigma) and injected s.c. to flank near tail of the mice twice (the second injection was made 21 days after the first injection) to create CIA model mice. The eight groups of CIA model mice were separated into four prophylactic groups and four therapeutic groups, with each group subjected to different treatments.
(§2) In the four prophylactic groups, daily treatments started from the date when the first CIA induction injection was made. The first of the four prophylactic groups of CIA model mice were treated with 30% PEG300 (containing 4% DMSO-all 30% PEG300 in the application contains 4% DMSO) solution via intraperitoneal injection as controls (Model). The second of the four prophylactic groups of CIA model mice were treated with nicotinohydrazide (Calbiochem) 10 mg/kg in 30% PEG300 solution via intraperitoneal injection (573108 10 mg/kg). The third of the four prophylactic groups of CIA model mice were treated with nicotinohydrazide (Calbiochem) 5 mg/kg in 30% PEG300 solution via intraperitoneal injection (573108 5 mg/kg). The last of the four prophylactic groups of CIA model mice were treated with Tofacitinib (Selleckchem) 5 mg/kg in 30% PEG300 solution via intraperitoneal injection (Tofacitinib 5 mg/kg).
(§3) In the four therapeutic groups, daily treatments started from the date when the second CIA induction injection was made. The first of the four therapeutic groups of CIA model mice were treated with 30% PEG300 solution via intraperitoneal injection as controls (Model). The second of the four therapeutic groups of CIA model mice were treated with nicotinohydrazide (Calbiochem) 10 mg/kg in 30% PEG300 solution via intraperitoncal injection (573108 10 mg/kg). The third of the four therapeutic groups of CIA model mice were treated with nicotinohydrazide (Calbiochem) 5 mg/kg in 30% PEG300 solution via intraperitoneal injection (573108 5 mg/kg). The last of the four therapeutic groups of CIA model mice were treated with Tofacitinib (Selleckchem) 5 mg/kg in 30% PEG300 solution via intraperitoncal injection (Tofacitinib 5 mg/kg).
(§4) The inventors collected data of the weight, and clinical scores of the mice every 2-3 days and performed statistic analysis. The method used in the statistic analysis was Student's t test, unpaired, two-tailed analysis.
The clinical scores were derived according to the scheme in Table 2.

[2] = weight changes in mouse CIA model; type: in vivo, DBA/1J mice; settings: 5 mg/kg i.p. daily
Protocol: FIGS. 7A and 78 show graphs depicting weight changes in five groups of mouse CIA models under different treatment schemes. DBA/1 mice were randomly divided into 9 groups with 10 mice each group. On day 0 and 21, all of them except blank control group were inoculated with 50 ul collagen plus CFA mixture subcutaneously at back flank near tail. The weights of all 90 mice were monitored 3 times a week throughout the experiment.
as §1, §2, §3, §4

Q: Which “clinical scores compared to Model” value ([1]; prophylactic groups) does the source give for `C[C@@H]1CCN(C(=O)CC#N)C[C@@H]1N(C)c1ncnc2[nH]ccc12` [Tofacitinib] here?
A: reduced clinical scores

Q: And the “Pairwise analysis of the difference between groups (clinical scores), vs Model” value ([1]; prophylactic groups, Day 28)?
A: 0.0949

Q: And the “Pairwise analysis of the difference between groups (clinical scores), vs Model” value ([1]; prophylactic groups, Day 30)?
A: 0.0496

Q: What about the “Pairwise analysis of the difference between groups (clinical scores), vs Model” value ([1]; prophylactic groups, Day 32) of the same compound?
A: 0.0610

Q: What about the “Pairwise analysis of the difference between groups (clinical scores), vs Model” value ([1]; prophylactic groups, Day 35) of the same compound?
A: 0.0064

Q: And the “Pairwise analysis of the difference between groups (clinical scores), vs Model” value ([1]; prophylactic groups, Day 37)?
A: 0.0178

Q: What about the “Pairwise analysis of the difference between groups (clinical scores), vs Model” value ([1]; prophylactic groups, Day 39) of the same compound?
A: 0.0010

Q: And the “Pairwise analysis of the difference between groups (clinical scores), vs Model” value ([1]; prophylactic groups, Day 42)?
A: 0.0015

Q: What about the “Pairwise analysis of the difference between groups (clinical scores), vs Model” value ([1]; prophylactic groups, Day 44) of the same compound?
A: 0.0026

Q: What about the “clinical scores compared to Model” value ([1]; therapeutic groups) of the same compound?
A: reduced clinical scores

Q: What about the “Pairwise analysis of the difference between groups (clinical scores), vs Model” value ([1]; therapeutic groups, Day 28) of the same compound?
A: 0.0258

Q: And the “Pairwise analysis of the difference between groups (clinical scores), vs Model” value ([1]; therapeutic groups, Day 30)?
A: 0.0471

Q: What about the “Pairwise analysis of the difference between groups (clinical scores), vs Model” value ([1]; therapeutic groups, Day 32) of the same compound?
A: 0.0138

Q: And the “Pairwise analysis of the difference between groups (clinical scores), vs Model” value ([1]; therapeutic groups, Day 35)?
A: 0.0163

Q: What about the “Pairwise analysis of the difference between groups (clinical scores), vs Model” value ([1]; therapeutic groups, Day 37) of the same compound?
A: 0.0170

Q: What about the “Pairwise analysis of the difference between groups (clinical scores), vs Model” value ([1]; therapeutic groups, Day 39) of the same compound?
A: 0.0153

Q: What about the “Pairwise analysis of the difference between groups (clinical scores), vs Model” value ([1]; therapeutic groups, Day 42) of the same compound?
A: 0.0081

Q: And the “Pairwise analysis of the difference between groups (clinical scores), vs Model” value ([1]; therapeutic groups, Day 44)?
A: 0.0044

Q: And the “trend of weight changes, p vs Model” value ([2]; prophylactic groups)?
A: 0.0130

Q: What about the “trend of weight changes, p vs Model” value ([2]; therapeutic groups) of the same compound?
A: 0.0005
